{"source": "patent US20080311103A1", "about": "“Anti-Inflammatory Peptides and Methods of Use Thereof” (YEDA RESEARCH AND DEVELOPMENT CO. LTD. at THE WEIZMANN …, priority 2004, published 2008)", "key": {"T cells": {"system": "T cells", "test": "Chemotaxis assay: T cell migration toward SDF-1α", "assay_type": "cell-based", "details": "concentration range 10-1000 ng/ml; SDF-1α 250 ng/ml; 3 hr", "procedure": "The migration of ^51-[Cr]-labeled T cells was examined in […] Transwell chemotaxis apparatus (6.5-mm diameter; Corning, N.Y.), consisting of two compartments separated by polycarbonate filters (5 μm pore size) pretreated (1 hr, 37° C.) with FN (25 μg/ml). ^51-[Cr]-labeled T cells (2×10^5 in 100 μl of RPMI containing 0.1% BSA and antibiotics), which were pre-incubated with the indicated concentrations of peptides (30 min, 37° C.), were added to the upper chambers. The bottom chambers contained 0.6 ml of the same media, with or without human Stromal cell-Derived Factor-1α (SDF-1α; 250 ng/ml). After incubation at 37° C. for 3 hr (7.5% CO2-humidified atmosphere), cells that had transmigrated into the lower wells were collected, centrifuged, and lysed (in 100 μl of distilled water containing 1 M NaOH and 0.1% Triton X-100), and the radioactivity in the resulting supernatants was determined with a γ-counter. The percentage (±SD) of cell migration was calculated as the radioactivity counts in the lysates of the lower chambers (representative of the migrating cells) divided by the total counts (representative of 2×10^5 cells)."}, "NF-κB": {"system": "NF-κB", "test": "Nuclear translocation of NF-κB in T cells (Western blot)", "assay_type": "cell-based", "details": "peptide 100 ng/ml for 2 hours, then anti-CD3 mAb 24 hr; human T cells", "description": "To address the modulatory role of the wound fluid peptides on the signal transduction cascade leading to regulation of T-cell secretion of TNF-α(and IFN-γ, the nuclear translocation of NF-κB was detected by probing nuclear and cytoplasmic T-cell extracts using mAb specific for the p65 subunit of NF-κB. The nuclear protein Lamin B was used as continuatively expressed control protein for the quantification of protein amounts.\nHuman T cells. T cells were purified from the peripheral blood of healthy human donors (Blood Bank; Tel-Hashomer, Israel). The whole blood was incubated (20 min, 22° C.) with RosetteSep™ human T-cell enrichment cocktail (StemCell Technologies, Vancouver, BC, Canada). The remaining unsedimented cells were then loaded onto Lymphocyte Separation Medium (ICN Biomedicals; Belgium), isolated by density centrifugation, and washed with PBS. The purified cells (>95% CD3^+ T cells) so obtained were cultured in RPMI containing antibiotics and 10% heat-inactivated FCS. Western blot analysis of T-cell nuclear extracts. Purified T cells (5×10^6) were preincubated with the peptides (100 ng/ml) for 2 hours (37° C. in a 7% CO2, humidified atmosphere). The cells were then replated in 24-well plates pre-coated with anti-CD3 mAb for 24 hr (37° C. in a 7% CO2, humidified atmosphere). T cells were lysed in 10 mM HEPES, 1.5 mM MgCl2, 1 mM dithiothreitol (DTT), 1 mM PMSF, 0.5% Nonidet P-40. The lysates were incubated on ice for 10 min and centrifuged at 2000 rpm for 10 min at 4° C. The supernatants (cytoplasmic extracts) were transferred and the pellet (nuclei) was suspended in buffer containing 30 mM HEPES, 450 mM NaCl, 25% Glycerol, 0.5 mM EDTA, 6 mM DTT, 12 mM MgCl2 1 mM PMSF, 10 μg/ml leupeptin, 10 μg/ml pepstatin, 1% phosphatase inhibitor cocktail, and the suspension was incubated on ice for 30 min. The lysates were cleared by centrifugation (30 min, 14×10^3 rpm, 4° C.), and the resulting supernatants analyzed for protein content. […]"}}}
{"sequence": "WDNLEKETEGL [peptide No. 3, residues 96-106 of Apo A-I; identified in wound fluids, then synthesized]", "values": [{"measurement": "inhibition of T cell transmigration toward SDF-1α", "setting": "T cells", "value": "did not show a significant inhibition"}, {"measurement": "NF-κB translocation to the nucleus", "setting": "NF-κB", "value": "significant down-regulation"}]}
